# Patent US4276430A, “Analgesic and anti-inflammatory compounds and compositions containing same” (The Procter & Gamble Company, priority 1979, dated 1981)
# Experiments:
# [1] = guinea pig ultraviolet light induced erythema test; assay type: in vivo, guinea pig (Hartley strain albino); conditions: Cavia porcellus; topical; cumulative blanching grades over a 1-4 hour period after application; vehicle propylene glycol/ethanol; read-out: IC50 (concentration which inhibits UV-induced erythema by 50%)
# Description: The compositions of this invention are evaluated for their anti-inflammation properties using a guinea pig ultraviolet light induced erythema test.
# Hartley strain albino guinea pigs weighing between 400 and 500 grams are clipped on the dorsal area and then depilated using a cream hair remover. 15 minutes after the application of the hair remover, the area is thoroughly washed using warm tap water and then dried with a towel. […] Ten minutes irradiation constitutes a minimal erythema dose. An adhesive tape strip is attached to the center of the guinea pig's back to retain an unirradiated portion of skin. About 1 hour after irradiation time, 3 preparations are applied on each side using a micropipette. The treated areas are about 1×4 cm in size and are aligned vertically from near the center back down the side. The degree of blanching is determined at hourly intervals.
# Compositions as below are formulated and tested.
# *Dihydroxybenzoic acid derivative
# Comparisons of the anti-inflammatory activity of the dihydroxybenzoic acid derivatives are made by calculating their IC50 values.
# [2] = administered orally; aspirin-based products; cited from earlier work
# [3] = cited from earlier work
# [4] = UV-induced erythema test in humans: anti-erythemic activity (blanching); assay type: in vivo, human; conditions: for blanching response: first 3-4 hours after a single application
# [5] = UV-induced pain test in humans: analgesic activity (radiant heat pain stimulus); assay type: in vivo, human; conditions: for Recovery of Treated Skin: 1% (w/w) in propylene glycol/ethanol
# Text: The UV-induced erythema and/or pain model consists of creating a burn with ultraviolet light (UV) and treating the resultant erythemal reaction with topical applications of the new drug formulations. At various time intervals, the degree of erythema and the pain tolerance response to radiant heat are monitored.
# Experiments have been designed to determine the effectiveness of benzyl 2,5-diacetoxybenzoate according to several parameters: treatment times, concentration of drug, repeated applications,duration of response, and vehicles.
# A total of 56 subjects were actually used in the UV-induced erythema and pain tests.
# The compositions of the test formulations employed in these studies were as follows: […]
# (E) 0.01-0.5% (w/w) benzyl 2,5-diacetoxybenzoate in ethanol/propylene glycol/water (50/10/40, w/w/w);
# (G)* 0.025 to 2.5% (w/w) benzyl 2,5-diacetoxybenzoate in a cream vehicle;
# Induction of Erythema: Subjects were irradiated on a 2.5×20 cm area on their backs, using a bank of three 20S Westinghouse fluorescent lamps at a distance of 15 cm. Each subject received 2 to 4 MEDs of light (minimum erythemal dose) for these experiments.
# Treatment with Formulations: The UV-irradiated area was divided into 4 treatment sites. When liquid formulations were tested, up to 40 microliter were topically applied to each treatment site using an Eppendorf micropipet. When cream formulations were tested, no more than 100 microliter were topically applied to each treatment site using a 1 cc tuberculin syringe with no needle; the cream was rubbed into the skin with a gloved finger.
# Each site was treated no more than 4 times, and all treatments occurred within the 24-hour interval following UV-irradiation.
# A randomixed treatment sequence was used.
# 2. Analgesic At suitable time
# Elapsed time, in seconds,
# Activity intervals within
# to respond to a radiant
# treated and untreated skin.
# Skin irradiated with 3-4 MEDs (minimal erythemal doses) of UV-B light (normal sunburn range) becomes hyperalgesic to radiant heat in about four hours.
# The experimental design was regarded as randomized blocks, in which the subject is the "block". The variation between subjects with respect to erythema or analgesic response was accounted for as a source of variation in the Analysis of Variance (ANOVA).
# [6] = suppression of inflammation associated with arthritis (Mycobacterium butyricum, hind paw volume); assay type: in vivo, rat (Male Sprague-Dawley); conditions: topical 20 mg/kg/day, five weeks
# Description: This example illustrates the efficacy of the dihydroxybenzoic acid derivatives described herein for suppressing the inflammation associated with arthritis.
# Male Sprague-Dawley rats, weighing between 180-200 grams, are injected subcutaneously in the distal third of the tail with a suspension of 0.8 mg of heat-killed Mycobacterium butyricum in 0.1 ml of mineral oil. This injection introduces arthritis into the rat as evidenced by pedal edema (swelling). Measurement of the alleviation of the inflammation associated with the arthritis is made by determining the volume of the hind paws initially, two weeks later, and each subsequent week thereafter. The paw volume measurements are obtained by immersing each rat's hind paw up to a predetermined mark in a mercury bath connected to a Statham pressure transducer. The increase in pressure within the bath is proportional to the volume of the paw introduced.
# A solution of benzyl 2,5-diacetoxybenzoate is made. The solution comprises a 1:1 mixture of propylene glycol and ethanol and 2% benzyl 2,5-diacetoxybenzoate. In one group, each rat is treated topically with 20 mg/kg/day of the benzyl 2,5-diacetoxybenzoate solution. The changes in paw volume after each treatment are compared to the control rats.
# [7] = vehicle propylene glycol/ethanol (50/50, w/w)
smiles,measurement,setting,value
CC(=O)Oc1ccc(OC(C)=O)c(C(=O)OC(C)c2ccccc2)c1 (stereo not shown) [CH(C6 H5)CH3],IC50,[1],1200 µM
CCOC(=O)c1cc(OC(C)=O)ccc1OC(C)=O [C2 H5],IC50,[1],1800 µM
"CCCCCCCCCCCCOC(=O)c1cc(OC(C)=O)ccc1OC(C)=O [C12 H25, Dodecyl 2,5-diacetoxybenzoate]",IC50,[1],1200 µM
CC(=O)Oc1ccccc1C(=O)O [aspirin],"gastric irritation and frank stomach bleeding, patients affected",[2],up to 70%
same,skin irritation on repeated topical application,[3]; repeated topical application of a high level,primary irritation and peeling of the superificial layers (the stratum corneum) of the skin
same,concentration needed for topical analgesic effect,[3]; topical,a relatively high concentration of aspirin must be topically applied before its effect as a topical analgesic is noted
same,effect on inflammation in humans when applied topically,[3]; topical,can delay and decrease inflammation in humans when applied topically
"CCCCC(CC)COC(=O)c1cc(OC(C)=O)ccc1OC(C)=O (stereo not shown) [C2 H3 (C2 H5)C4 H9, 2'-ethylhexyl 2,5-diacetoxybenzoate]",IC50,[1],5800 µM
"CCCCOC(=O)c1cc(OC(C)=O)ccc1OC(C)=O [C4 H9, n-Butyl 2,5-diacetoxybenzoate]",IC50,[1],1200 µM
"CCCCCCCCCCOC(=O)c1cc(OC(C)=O)ccc1OC(C)=O [C10 H21, Decyl 2,5-diacetoxybenzoate]",IC50,[1],650 µM
"CCCOC(=O)c1cc(OC(C)=O)ccc1OC(C)=O [C3 H7, Propyl 2,5-diacetoxybenzoate]",IC50,[1],1100 µM
COC(=O)c1cc(OC(C)=O)ccc1OC(C)=O [CH3],IC50,[1],2300 µM
"CCCCCCOC(=O)c1cc(OC(C)=O)ccc1OC(C)=O [C6 H13, Hexyl 2,5-diacetoxybenzoate]",IC50,[1],340 µM
CCCCCCCCOC(=O)c1cc(OC(C)=O)ccc1OC(C)=O [C8 H17],IC50,[1],340 µM
"CC(=O)Oc1ccc(OC(C)=O)c(C(=O)OCc2ccccc2)c1 [Benzyl 2,5-diacetoxybenzoate]",IC50,[1],400 µM
same,blanching response,[4]; 0.01%,distinctly weaker
same,blanching response,[4]; 0.03-2.5%,very similar responses
same,"blanching response, multiple application compared with single application","[4]; 1 to 2.5%, 1 to 4 times within 24 hours",did not produce an effect greater than obtained with a single application
same,half-life of the response (time for the maximum response to diminish 50%),[4]; after drug treatment,about 9 hours
same,time of maximum blanching response,[4]; after drug treatment,2 to 3 h
same,effect of treatment time on blanching response,[4]; application from a few minutes to 24 hours following UV-irradiation,"the earlier a given treatment was made after UV-irradiation, the greater the blanching response"
same,"vehicle effectiveness, peak blanching response: rank 1 (decreasing order)",[4]; at a given concentration,"propylene glycol/ethanol (50/50, w/w)"
same,"vehicle effectiveness, peak blanching response: rank 2 (decreasing order)",[4]; at a given concentration,"ethanol/propylene glycol/water (50/10/40, w/w/w)=cream"
same,"vehicle effectiveness, peak blanching response: rank 3 (decreasing order)",[4]; at a given concentration,"ethanol/water (80/20, w/w)"
same,anti-erythemic activity,[4]; conclusion,has anti-erythemic activity
same,duration of some degree of blanching,"[4]; higher concentrations, after treatment, dose-related",5 to 11 h
same,"blanching response, repeated application","[4]; low concentrations, e.g., 0.03%, 1 to 4 times within 24 hours",high blanching response
same,antierythemic activity by vehicle,"[4]; propylene glycol/ethanol (50/50, w/w) vehicle",highest antierythemic activity
same,Tests with Analgesic Responses,"[5]; 0.01% in Propylene Glycol/Ethanol (50/50, w/w)",1/6
same,dose dependence of the analgesic response,"[5]; 0.01-1.0% in Propylene Glycol/Ethanol (50/50, w/w)",dose-dependent
same,Tests with Analgesic Responses,"[5]; 0.1% in Propylene Glycol/Ethanol (50/50, w/w)",2/6
same,"analgesic activity, three applications compared with 2 or 1",[5]; 0.25%,more effective than 2 or 1 applications
same,"analgesic activity, repeated application compared with single application",[5]; 1%,failed to increase the level of analgesic activity effected by a single application
same,time of maximum analgesic activity,"[5]; 1% (w/w) in propylene glycol/ethanol (50/50, w/w), treatment 2 to 6 hours after UV-irradiation, following treatment",2 to 4 h
same,duration of some analgesic effects,"[5]; 1% (w/w) in propylene glycol/ethanol (50/50, w/w), after treatment(s)",up to 10 hours
same,Tests with Analgesic Responses,"[5]; 1.0% in Propylene Glycol/Ethanol (50/50, w/w)",9/12
same,Recovery of Treated Skin,"[5]; 2-4 hours after treatment, 22 subjects, SE 0.5, normal minus non-treated skin 4.0",2.4 s
same,Recovery of Treated Skin,"[5]; 5-7 hours after treatment, 16 subjects, SE 0.4",1.6 s
same,Recovery of Treated Skin,"[5]; 8-10 hours after treatment, 6 subjects, SE 0.7",1.4 s
same,"delivery of an efficacious dose into the skin, compared with propylene glycol/ethanol","[5]; Ethanol/water (80/20), ethanol/propylene glycol/water (50/10/40), and a cream",somewhat less effective than propylene glycol/ethanol
same,topical analgesic activity,"[5]; conclusion, rather severe and acute pain",does have topical analgesic activity for rather severe and acute pain
same,return to normal pain tolerance,"[5]; in 8 out of the 12 tests, at least one concentration at one time point",≥ 80%
same,analgesic action in non-irradiated skin,[5]; non-irradiated skin,No evidence of analgesic action was found
same,analgesic response by vehicle,"[5]; propylene glycol/ethanol (50/50, w/w) vehicle, compared with 4 vehicle systems",strongest analgesic activity
same,analgesic activity,[5]; skin treated 2 to 6 hours following UV-irradiation,Analgesic activity was demonstrated
same,tests in which at least one concentration at one time point effected at least an 80% return to normal pain tolerance,[5]; [7],8 out of the 12
same,tests with statistically significant analgesia,[5]; [7],9 out of 12
same,reduction in pedal edema compared to non-treated control group,[6]; 2% solution in 1:1 propylene glycol and ethanol,significant improvement compared to the non-treated control group
same,reduction in pedal edema compared with aspirin 200 mg/kg/day oral,[6],comparable
